Assay results from PMC8942523, “The three-tails approach as a new strategy to improve selectivity of action of sulphonamide inhibitors against tumour-associated carbonic anhydrase IX and XII” (Journal of Enzyme Inhibition and Medicinal Chemistry, 2022).

Target: T1, hCA IX (Homo sapiens, UniProt Q16790)
T1 construct: gene CA9
Experiment: stopped-flow CO2 hydration
Assay type: biochemical
Source text: stopped-flow CO2 hydration on hCA IX

Compound	Ki
CCCCCCN(CCCCCC)CCC(=O)N(CCc1ccccc1)CCc1ccc(S(N)(=O)=O)cc1 [compound 30, 30]	42.9 nM
NS(=O)(=O)c1ccc(CCN(CCc2ccccc2)C(=O)CN(CCC(=O)O)CCc2ccccc2)cc1 [compound 45, 45]	7.5 nM
N#CCCN(CCc1ccccc1)CC(=O)N(CCc1ccc(S(N)(=O)=O)cc1)Cc1ccc(F)cc1 [compound 36, 36]	3 nM
CCCCCN(CCCCC)CC(=O)N(CCc1ccc(S(N)(=O)=O)cc1)Cc1ccccc1 [compound 21, 21]	48.5 nM
NS(=O)(=O)c1ccc(CCN(Cc2ccccc2)C(=O)CCN(Cc2ccccc2)Cc2ccccc2)cc1 [compound 26, 26]	106 nM
N#CCCN(CCc1ccccc1)CC(=O)N(CCC#N)CCc1ccc(S(N)(=O)=O)cc1 [compound 39, 39]	19.3 nM
CCCCCCCCN(CCCCCCCC)CCC(=O)N(CCc1ccc(S(N)(=O)=O)cc1)Cc1ccccc1 [compound 29, 29]	147 nM
N#CCCN(CCc1ccccc1)CC(=O)N(CCc1ccc(S(N)(=O)=O)cc1)Cc1ccco1 [compound 35, 35]	95.1 nM
NS(=O)(=O)c1ccc(CCN(Cc2ccc3ccccc3c2)C(=O)CN(CCC(=O)O)CCc2ccccc2)cc1 [compound 48, 48]	22.1 nM
CCCCCCN(CCCCCC)CC(=O)N(CCc1ccc(S(N)(=O)=O)cc1)Cc1ccccc1 [compound 22, 22]	123 nM
CCN(CCC(=O)N(CCc1ccc(S(N)(=O)=O)cc1)Cc1ccccc1)Cc1ccccc1 [compound 25, 25]	166 nM
CCN(CC)CCC(=O)N(CCc1ccc(S(N)(=O)=O)cc1)Cc1ccccc1 [compound 24, 24]	31.1 nM
CCCCCCCC/C=C\CCCCCCCCNC(=O)CCN(CCc1ccccc1)CC(=O)N(CCc1ccc(S(N)(=O)=O)cc1)Cc1ccco1 [compound 50, 50]	61.1 nM
CCCCCCN(CCCCCC)CCC(=O)N(CCc1ccc(S(N)(=O)=O)cc1)Cc1ccccc1 [compound 28, 28]	94.2 nM
CCCCCCN(CCCCCC)CC(=O)N(CCCN)CCc1ccc(S(N)(=O)=O)cc1 [compound 44, 44]	116 nM
N#CCCN(CCc1ccccc1)CC(=O)N(CCc1ccccc1)CCc1ccc(S(N)(=O)=O)cc1 [compound 34, 34]	32.3 nM

Compound	Ki
N#CCCN(CCc1ccccc1)CC(=O)N(CCc1ccc(S(N)(=O)=O)cc1)Cc1ccc([N+](=O)[O-])cc1 [compound 38, 38]	202 nM
NS(=O)(=O)c1ccc(CCN(Cc2ccc(F)cc2)C(=O)CN(CCC(=O)O)CCc2ccccc2)cc1 [compound 47, 47]	11.1 nM
NCCCN(CCc1ccccc1)CC(=O)N(CCc1ccc(S(N)(=O)=O)cc1)Cc1ccc(F)cc1 [compound 42, 42]	4.8 nM
NCCCN(CCc1ccccc1)CC(=O)N(CCc1ccccc1)CCc1ccc(S(N)(=O)=O)cc1 [compound 40, 40]	4 nM
CCCCCCCCN(CCCCCCCC)CC(=O)N(CCc1ccc(S(N)(=O)=O)cc1)Cc1ccccc1 [compound 23, 23]	271 nM
CCN(CC)CC(=O)N(CCc1ccc(S(N)(=O)=O)cc1)Cc1ccccc1 [compound 18, 18]	30.6 nM
NCCCN(CCc1ccccc1)CC(=O)N(CCc1ccc(S(N)(=O)=O)cc1)Cc1ccco1 [compound 41, 41]	11.1 nM
NS(=O)(=O)c1ccc(CCN(Cc2ccco2)C(=O)CN(CCC(=O)O)CCc2ccccc2)cc1 [compound 46, 46]	1.2 nM
NCCCN(CCc1ccccc1)CC(=O)N(CCc1ccc(S(N)(=O)=O)cc1)Cc1ccc2ccccc2c1 [compound 43, 43]	34.3 nM
CCCCCCN(CCCCCC)CC(=O)N(CCC#N)CCc1ccc(S(N)(=O)=O)cc1 [compound 33, 33]	154 nM
CCCCCCN(CCCCCC)CC(=O)N(CCc1ccc(S(N)(=O)=O)cc1)Cc1ccc2ccccc2c1 [compound 32, 32]	296 nM
CCCCCCN(CCCCCC)CC(=O)N(CCC(=O)O)CCc1ccc(S(N)(=O)=O)cc1 [compound 49, 49]	68.3 nM
CCCCCN(CCCCC)CCC(=O)N(CCc1ccc(S(N)(=O)=O)cc1)Cc1ccccc1 [compound 27, 27]	134 nM
N#CCCN(CCc1ccccc1)CC(=O)N(CCc1ccc(S(N)(=O)=O)cc1)Cc1ccc2ccccc2c1 [compound 37, 37]	151 nM
NS(=O)(=O)c1ccc(CCN(Cc2ccccc2)C(=O)CN(Cc2ccccc2)Cc2ccccc2)cc1 [compound 20, 20]	234 nM
CCN(CC(=O)N(CCc1ccc(S(N)(=O)=O)cc1)Cc1ccccc1)Cc1ccccc1 [compound 19, 19]	119 nM
